Assays:
[1] = molecular target: T1, HMGB1 (Homo sapiens, UniProt P09429); test: Biolayer interferometry (BLI) binding of DNA to HMGB1 coupled to a biolayer sensor; conditions: for Kd: HMGB1 amide-coupled to biolayer sensor, + CP = with cisplatin, read-out: Affinity to HMGB1; for effect of addition of platinum compound on DNA binding / affinity of DNA to HMGB1: platinum compound added to DNA
T1 sequence (P09429 1-215): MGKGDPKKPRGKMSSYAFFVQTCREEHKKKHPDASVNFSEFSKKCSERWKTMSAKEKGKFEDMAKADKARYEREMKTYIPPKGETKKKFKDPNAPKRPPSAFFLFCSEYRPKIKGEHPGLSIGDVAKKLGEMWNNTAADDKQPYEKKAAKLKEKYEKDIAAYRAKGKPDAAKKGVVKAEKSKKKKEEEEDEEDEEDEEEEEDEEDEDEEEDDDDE

[2] = molecular target: RAGE (Homo sapiens, UniProt Q15109); test: BLI binding of sRAGE to HMGB1 in the presence of DNA; conditions: for Kd: sRAGE binding to HMGB1 in the presence of the DNA, + CP = with cisplatin, read-out: Affinity to RAGE
[3] = molecular target: HMGB1 (Homo sapiens?) (UniProt P09429); test: BLI; conditions: given as affinity, unit not stated (M assumed)

Chain of RAGE (Q15109 23-342 limits assumed, one chain of several): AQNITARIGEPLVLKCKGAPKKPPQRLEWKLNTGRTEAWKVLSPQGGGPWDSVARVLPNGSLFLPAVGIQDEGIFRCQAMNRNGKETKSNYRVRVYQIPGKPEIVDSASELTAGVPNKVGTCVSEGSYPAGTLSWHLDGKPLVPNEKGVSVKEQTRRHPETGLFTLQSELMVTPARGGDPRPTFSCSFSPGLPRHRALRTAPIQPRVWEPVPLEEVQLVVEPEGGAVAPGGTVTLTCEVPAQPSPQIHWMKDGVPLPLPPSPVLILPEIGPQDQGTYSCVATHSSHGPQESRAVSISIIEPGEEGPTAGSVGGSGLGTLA

Compound: 5′-CCTCTCTGGACCTTCC*T*T*T*T*GGAAGGTCCAGAGA*G*G [Oligo 1]
- Kd [1]: 6.6 nM
- Kd [2]: 8.7 nM

Compound: 5′-CTGGACCTTCC*T*T*T*T*GGAAGGTCC*A*G [Oligo 2]
- Kd [1]: 33 nM
- Kd [2]: 4.3 nM

Compound: 5′-GTA cGA agT CCG TTC cTa GGC tTG ct-3′ (5'-GTA cGA agT CCG TTC cTa GGC tTG ct-3'; as printed in the source, key not given here) [Scrambled 2, scrambled hairpin oligonucleotide used as a control]
- Kd [1]: 180 nM
- Kd [2]: 3.9 nM

Compound: 5′-cTC CGA CGc tCA aTG cTG GTA CGG Tat CCG TgT TAG-3′ (CTCCGACGCTCAATGCTGGTACGGTATCCGTGTTAG; chemistry not given here) [Scrambled 1, scrambled hairpin oligonucleotide used as a control]
- Kd [1]: 51 nM
- Kd [2]: 8.7 nM

Compound: N.N.O=C([O-])C1(C(=O)[O-])CCC1.[Pt+2] [carboplatinum, carboplatin]
- effect of addition of platinum compound on DNA binding / affinity of DNA to HMGB1 [1]: enhanced DNA binding

Compound: N.N.[Cl][Pt][Cl] [cisplatin]
- effect of addition of platinum compound on DNA binding / affinity of DNA to HMGB1 [1]: increases the affinity
- effect of addition of platinum compound on DNA binding / affinity of DNA to HMGB1 ([1]; listed as cis-platinum): enhanced DNA binding
- effect of cisplatin on affinity between sRAGE and HMGB1 ([2]; in the presence of cisplatin): No increased affinity

Compound: O=C1[O][Pt]2([NH][C@@H]3CCCC[C@H]3[NH]2)[O]C1=O [oxaliplatin]
- effect of addition of platinum compound on DNA binding / affinity of DNA to HMGB1 [1]: enhanced DNA binding

Compound: Circular DNA
- Kd ([3]; p52 says circular DNA not measured well): 3.6 nM

Compound: Linear DNA
- Kd [3]: 0.014 nM

From patent US20090147264A1, “LABEL-FREE, REAL-TIME DETECTION SYSTEM FOR MOLECULAR INTERACTION ANALYSIS” (The University of Pittsburgh - Of the Commonwealth System …, priority 2007, published 2009)
